Experimental data published in patent US20170273922A1, “UREA AND BIS-UREA BASED COMPOUNDS AND ANALOGUES THEREOF USEFUL IN THE TREATMENT OF ANDROGEN RECEPTOR MEDIATED DISEASES OR DISORDERS” (THE ROYAL INSTITUTION FOR THE ADVACEMENT OF LEARNING/MCGILL …, priority 2014, published 2017).

How the values were obtained:
Type in all cases: cell-based
[1] = tested on: 22Rv1 cells; assay: MTT assay (cytotoxicity), 22Rv1 cells; settings: 72 h
Experimental: (§1) MTT assays: LNCaP, 22Rv1, Du145, H1975, A549, MB231 and MCF-7 cells are maintained in RPMI 1640 supplemented with 10% FBS. Cells were seeded at a density of 6-7×10^3 cells per well in 96-well plates. After overnight incubation, cells in fresh RPMI 1640 supplemented with 10% FBS were exposed to DMSO vehicle control or test compounds at designated concentrations for 72 h. Viable cells were evaluated by MTT assays. Experiments were performed in triplicate and repeated at least twice.

[2] = tested on: DU145 cells; assay: MTT assay (cytotoxicity), DU145 cells; settings: 72 h
Experimental: as §1

[3] = MTT assay (cytotoxicity), DU145 cells; settings: human, DU145 cells, Table 2.3
Experimental: as §1

[4] = MTT assay (cytotoxicity), LNCaP cells; settings: human, LNCaP cells, 72 h, Table 2.3
Experimental: as §1

[5] = tested on: LNCaP cells; assay: MTT assay (cytotoxicity), LNCaP cells; settings: 72 h
Experimental: as §1

[6] = MTT assay (cytotoxicity), 22Rv1 cells; settings: human, 22Rv1 cells, 72 h, Table 2.3
Experimental: as §1

SMILES | IC50 ([5]; Table 2.2) [µM] | IC50 ([1]; Table 2.2) [µM] | IC50 ([2]; Table 2.2) [µM] | further results
N#Cc1ccc(NC(=O)N/C=C/c2cc(C(F)(F)F)cc(C(F)(F)F)c2)nc1 [Compound 483] | – | – | – | IC50 ([1]; Table 2.1): 2.3 µM; IC50 ([2]; Table 2.1): 2 µM
O=C(N/C=C/c1ccccc1C(F)(F)F)Nc1ccc2c(c1)OCO2 [Compound 427] | – | – | – | IC50 at 72 h [3]: 19.2 µM; IC50 at 72 h [4]: 9.5 µM
O=C(N/C=C/c1cccc(C(F)(F)F)c1)Nc1ccccc1 [Compound 413] | > 20 | – | – | –
N#Cc1ccc(NC(=O)Nc2cc(C(F)(F)F)cc(C(F)(F)F)c2)cc1Cl [Compound 500] | – | – | – | IC50 ([1]; 22Rv1 cells, Table 4.2): 0.4 µM; IC50 ([2]; DU145 cells, Table 4.2): 1.3 µM; IC50 ([5]; LNCaP cells, Table 4.2): 0.2 µM
O=C(N/C=C/c1ccccc1C(F)(F)F)Nc1cccc(C(F)(F)F)c1 [Compound 406] | 14.4 | – | – | –
N#Cc1ccc(NC(=O)Nc2ccc(C(F)(F)F)cc2)cc1C(F)(F)F [Compound 509] | – | – | – | IC50 ([1]; 22Rv1 cells, Table 4.2): 1.6 µM; IC50 ([2]; DU145 cells, Table 4.2): 5.4 µM; IC50 ([5]; LNCaP cells, Table 4.2): 0.7 µM
N#Cc1ccc(NC(=O)N/C=C/c2cccc(F)c2)cc1C(F)(F)F [Compound 433] | 1.9 | 3.2 | 3.9 | –
N#Cc1ccc(NC(=O)N/C=C/c2cccc(C(F)(F)F)c2)cn1 [Compound 510] | – | – | – | IC50 ([1]; Table 2.1): 6.6 µM; IC50 ([2]; Table 2.1): 5.7 µM; IC50 ([5]; Table 2.1): 3.3 µM
N#Cc1ccc(NC(=O)N/C=C/c2cc(C(F)(F)F)ccc2C(F)(F)F)cc1 [Compound 468] | 0.9 | 1.9 | 1.5 | –
N#Cc1ccc(NC(=O)N/C=C/c2cc(C(F)(F)F)cc(C(F)(F)F)c2)cc1C(F)(F)F [Compound 463] | 1.2 | 1 | 1.2 | –
O=C(N/C=C/c1cc(C(F)(F)F)cc(C(F)(F)F)c1)Nc1ncccc1Br [Compound 527] | – | – | – | IC50 ([1]; Table 2.1): 7.6 µM; IC50 ([2]; Table 2.1): 6.8 µM; IC50 ([5]; Table 2.1): 5.3 µM
O=C(N/C=C/c1cc(C(F)(F)F)cc(C(F)(F)F)c1)Nc1cncc(F)c1 [Compound 535] | – | – | – | IC50 ([1]; Table 2.1): 3.1 µM; IC50 ([2]; Table 2.1): 3 µM; IC50 ([5]; Table 2.1): 2.6 µM
COc1cc([N+](=O)[O-])ccc1NC(=O)N/C=C/c1cccc(C(F)(F)F)c1 [Compound 441] | 4.8 | 8.3 | 6.7 | –
N#Cc1ccc(NC(=O)N/C=C/c2ccc(C(F)(F)F)cc2)cc1C(F)(F)F [Compound 421] | 1.4 | 7.2 | 3.4 | –
O=C(N/C=C/c1cc(C(F)(F)F)cc(C(F)(F)F)c1)Nc1cccnc1 [Compound 503] | – | – | – | IC50 ([1]; Table 2.1): 11.3 µM; IC50 ([2]; Table 2.1): 9.5 µM; IC50 ([5]; Table 2.1): 7.5 µM
O=C(N/C=C/c1cccc(C(F)(F)F)c1)Nc1ccc([N+](=O)[O-])cc1 [Compound 449] | 2.1 | 5.3 | 3.9 | –
O=C(N/C=C/c1ccc(C(F)(F)F)cc1)Nc1cccc(C(F)(F)F)c1 [Compound 408] | 15.6 | – | – | –
O=C(N/C=C/c1cc(C(F)(F)F)cc(C(F)(F)F)c1)Nc1ncccn1 [Compound 531] | – | – | – | IC50 ([2]; Table 2.1): < 1 µM; IC50 ([5]; Table 2.1): < 1 µM
O=C(N/C=C/c1cccc(C(F)(F)F)c1)Nc1cccc(C(F)(F)F)c1 [Compound 403] | 12.3 | – | > 20 | –
O=C(N/C=C/c1cccc(F)c1)Nc1cccc(C(F)(F)F)c1 [Compound 414] | 3.8 | 8.2 | 7.8 | –
COc1cccc(NC(=O)N/C=C/c2ccccc2C(F)(F)F)c1 [Compound 429] | 9.1 | 16.4 | 14.9 | –
N#Cc1ccc(NC(=O)N/C=C/c2cc(C(F)(F)F)ccc2C(F)(F)F)cc1C(F)(F)F [Compound 464] | 0.4 | 0.7 | 0.4 | –
O=C(N/C=C/c1cc(C(F)(F)F)cc(C(F)(F)F)c1)Nc1ccc([N+](=O)[O-])c(C(F)(F)F)c1 [Compound 438] | 0.5 | 0.6 | 0.9 | –
O=C(N/C=C/c1cccc(F)c1)Nc1ccc([N+](=O)[O-])c(C(F)(F)F)c1 [Compound 412] | 18.8 | > 20 | – | –

SMILES | IC50 ([5]; Table 2.2) [µM] | IC50 ([1]; Table 2.2) [µM] | IC50 ([2]; Table 2.2) [µM] | further results
O=C(N/C=C/c1cccc([N+](=O)[O-])c1)Nc1ccc([N+](=O)[O-])c(C(F)(F)F)c1 [Compound 456] | 2 | 4.1 | 5.2 | –
O=C(N/C=C/c1cccc(C(F)(F)F)c1)Nc1ccc(-n2ccnc2)cc1 [Compound 446] | 11.1 | 18.4 | > 20 | –
O=C(N/C=C/c1ccc(C(F)(F)F)cc1)Nc1ccc([N+](=O)[O-])c(C(F)(F)F)c1 [Compound 407] | 9.6 | – | 15.3 | –
COc1cccc(/C=C/NC(=O)Nc2cccc(OC)c2)c1 [Compound 430] | > 20 | > 20 | – | –
N#Cc1ccc(NC(=O)N/C=C/c2ccccc2C(F)(F)F)cc1 [Compound 405] | 3.4 | – | 8.3 | –
N#Cc1ccc(NC(=O)N/C=C/c2cccc(C(F)(F)F)c2)cc1 [Compound 416] | 1.6 | 3.6 | 2.6 | –
O=C(N/C=C/c1cc(C(F)(F)F)cc(C(F)(F)F)c1)Nc1cnccc1Cl [Compound 533] | – | – | – | IC50 ([1]; Table 2.1): 10.9 µM; IC50 ([2]; Table 2.1): 6.5 µM; IC50 ([5]; Table 2.1): 2 µM
O=C(N/C=C/c1ccccc1C(F)(F)F)Nc1ccc([N+](=O)[O-])c(C(F)(F)F)c1 [Compound 404] | 9.3 | – | 16.4 | –
N#Cc1ccc(NC(=O)N/C=C/c2cc(C(F)(F)F)ccc2C(F)(F)F)nc1 [Compound 481] | – | – | – | IC50 ([1]; Table 2.1): 2.6 µM; IC50 ([2]; Table 2.1): 0.8 µM
COc1cccc(NC(=O)N/C=C/c2cccc(C(F)(F)F)c2)c1 [Compound 417] | 14.6 | 10.8 | 12.2 | –
N#Cc1ccc(NC(=O)N/C=C/c2cc(C(F)(F)F)cc(C(F)(F)F)c2)cc1 [Compound 469] | 1 | 1.9 | 1.7 | –
Cc1ccccc1NC(=O)N/C=C/c1cccc(C(F)(F)F)c1 [Compound 445] | 4.1 | 5.2 | 4.8 | –
O=C(N/C=C/c1cccc(OC(F)(F)F)c1)Nc1ccc([N+](=O)[O-])c(C(F)(F)F)c1 [Compound 437] | 1.6 | 2.7 | 3 | –
N#Cc1ccc(NC(=O)N/C=C/c2cc(C(F)(F)F)ccc2C(F)(F)F)cn1 [Compound 480] | – | – | – | IC50 ([1]; Table 2.1): 1.8 µM; IC50 ([2]; Table 2.1): 1.7 µM
CN(C)c1ccc(NC(=O)N/C=C/c2cccc(C(F)(F)F)c2)cc1 [Compound 435] | 13.1 | > 20 | 20 | –
O=C(N/C=C/c1ccccc1)Nc1cccc(C(F)(F)F)c1 [Compound 415] | 6.6 | 11 | 14 | –
O=C(N/C=C/c1cc(C(F)(F)F)ccc1C(F)(F)F)Nc1ccc([N+](=O)[O-])c(C(F)(F)F)c1 [Compound 436] | 0.5 | 0.8 | 0.7 | –
N#Cc1ccc(NC(=O)Nc2cc(C(F)(F)F)cc(C(F)(F)F)c2)cc1C(F)(F)F [Compound 494] | – | – | – | IC50 ([1]; 22Rv1 cells, Table 4.2): 1.6 µM; IC50 ([2]; DU145 cells, Table 4.2): 1.5 µM; IC50 ([5]; LNCaP cells, Table 4.2): 0.3 µM
N#Cc1ccc(NC(=O)Nc2ccc(C(F)(F)F)cc2)cc1Cl [Compound 502] | – | – | – | IC50 ([1]; 22Rv1 cells, Table 4.2): 2.2 µM; IC50 ([2]; DU145 cells, Table 4.2): 4.1 µM; IC50 ([5]; LNCaP cells, Table 4.2): 1.2 µM
Nc1ccc(NC(=O)N/C=C/c2ccc(C(F)(F)F)cc2)cc1 [Compound 462] | 3.5 | 6.3 | 3.2 | –
O=C(N/C=C/c1cc(C(F)(F)F)cc(C(F)(F)F)c1)Nc1nccc(C(F)(F)F)n1 [Compound 538] | – | – | – | IC50 ([2]; Table 2.1): 1.2 µM; IC50 ([5]; Table 2.1): < 1 µM
N#Cc1ccc(NC(=O)Nc2ccc([N+](=O)[O-])c(C(F)(F)F)c2)cc1C(F)(F)F [Compound 465] | – | – | – | IC50 ([1]; 22Rv1 cells, Table 4.2): 5.2 µM; IC50 ([2]; DU145 cells, Table 4.2): 5.3 µM; IC50 ([5]; LNCaP cells, Table 4.2): 4.1 µM
O=C(N/C=C/c1cc(C(F)(F)F)cc(C(F)(F)F)c1)Nc1ccc2[nH]ccc2c1 [Compound 516] | – | – | – | IC50 at 72 h [6]: > 10 µM; IC50 at 72 h [4]: > 10 µM
